Results on one compound are retold here after patent publication US7541342B2, “Use of PKC-activating compounds as cardioprotectants and as apoptosis-inducing anti-tumor agents” (University of Tennessee Research Foundation, priority 2005, dated 2009).

One data set concerns HeLa cells. Put plainly: Apoptosis by propidium iodide staining and flow cytometry. In kind it is cell-based. The procedure: Cell Culture, Transfection, and Treatment: HeLa cells were cultured in Dulbecco's modified Eagle's medium (DMEM) containing 10% fetal bovine serum, 2 mM […] and penicillin (100 units/mL)-streptomycin (100 μg/mL) at 37° C. in a humidified 5% CO2 atmosphere. HeLa cells at 90% confluence were transfected with different mammalian expression vectors using LIPOFECTAMIN™ 2000 transfection reagent according to the manufacturer's protocol (Invitrogen Corporation, Carlsbad, Calif., United States of America). […] For down-regulation of PLS3, HeLa cells at 50% confluence were transfected with siRNA against PLS3 or a scrambled control. […] The whole cell lysate was extracted for analysis with Western blotting.
Analysis of Apoptotic Cells by Flow Cytometry and Determination of the Transmembrane Potential in Mitochondria: Cell death was quantified by TUNEL (Terminal Deoxynucleotidyltransferase-mediated dUTP-biotin Nick End Labeling; Roche Diagnostics, Basel, Switzerland) or propidium iodide (PI) staining, followed by flow cytometry. For TUNEL staining, HeLa cells were fixed with 1% paraformaldehyde for 15 min on ice and 70% ethanol for 1 h at −20° C. After washing with ice-cold PBS containing 0.125% BSA, cells were incubated in 50 μL of enzyme solution (350 μL dH2O, 100 μL TDT buffer, 50 μL CoCl2, 10 μL dUTP, 2 μL TDT enzyme) at 37° C. for 30 min and 100 μL of staining buffer (20 mL 20×SCC, 8 mL dH2O, 10 μL Triton X-100, 0.5 g nonfat dry milk, 500 μL staining buffer, 1.25 μL avidin-FITC) at room temperature for 30 min. The fluorescence intensity was analyzed by FACScan (BD Biosciences, San Jose, Calif., United States of America). For PI staining, HeLa cells were fixed in 0.5 mL cold 70% ethanol at −20° C. overnight. Cell pellet was resuspended in 300 μL of PBS containing 0.025 mg/mL PI, 0.05% Triton X-100, 0.1 mg/mL RNase A and incubated at room temperature for 30 min. The DNA content per nucleus was evaluated by FACScan. For mitochondrial potential analysis, HeLa cells were incubated with MITOTRACKER® Green at 37° C. for 20 min. The cells were collected and washed with PBS and analyzed by FACScan.
In general terms: Flow cytometry measures light scatter and fluorescence of single cells or particles in a stream.

Data set [1] in a line: In vivo drug distribution to heart. The settings on record: 2.5 mg/kg i.v. bolus, 5 min to 24 hr.
For data set [2], the system named is K562 cells overexpressing P-glycoprotein. Put plainly: IC50/IC90 cytotoxicity in drug-sensitive K562 (S) versus P-glycoprotein overexpressing K562 (R). As to conditions: 48 hours after 1 hour exposure.
In a further data set the test system is PKC-δ. Put plainly: PKC translocation immunoblot in K562 cells. The settings on record: 3 μM AD 198. Background: Immunoblotting shows a protein as a band on a membrane.
Data set [3] can be described thus: i.v. single dose LD50 (30 days). As to conditions: female, CD1, mouse, in vivo, iv.

Some results are limits rather than exact numbers.

Consider `CCCCC(=O)OCC(=O)[C@]1(O)Cc2c(O)c3c(c(O)c2[C@@H](O[C@H]2C[C@H](NCc4ccccc4)[C@H](O)[C@H](C)O2)C1)C(=O)c1c(OC)cccc1C3=O` [AD 198, N-benzyladriamycin-14-valerate], for which the “apoptosis in cells expressing PLS3(T21A)” value in the data set on HeLa cells (5 μM AD 198 for 16 hr) is “same degree of apoptosis as the control cells”. Moreover, in the data set on HeLa cells (AD 198 1, 5, 10 μM for 16 hr), the “apoptosis in cells transfected with siRNA against PLS3 versus scrambled siRNA” value is “suppressed” and the “apoptosis when PKC-δ was downregulated by siRNA versus control” value is on record as “less apoptosis”. Besides, the “apoptosis (sub-G0 population)” value in the data set with HeLa cells (cells overexpressing wild-type PLS3, 5 μM AD 198 for 16 hr) is 31%. For the same compound, the “apoptosis (sub-G0 population)” value with HeLa cells (control vector cells, 5 μM AD 198 for 16 hr) was 7%. Also, the “sensitivity to induced apoptosis with PLS3 overexpression versus without” value in the data set with HeLa cells (three doses of AD 198, 16 h) is given as “more sensitive”. Also, in data set [1], the “drug uptake into the heart” value is given as “not due to low drug uptake into the heart”. Also, in data set [2], the “resistance based on comparison of IC90 values” is “no significant resistance” and the “resistance, IC50 of resistant versus sensitive line” value is on record as 1.5 fold. The “time to detection of PKC-δ translocation to membrane” value with PKC-δ was no more than 1 h. The median lethal dose (LD50) (commonly the dose at which mortality reaches 50%) at 30 days in data set [3] was 46 mg/kg.
